Source: US9018438B2, “Screening method for anticancer drugs” (Kyoto University, priority 2010, dated 2015)
Structures can show the parent of a compound that is named as a salt. Where two headings read alike, the source gives them in different places.

Assays:
RM72 cells [1] = type: in vivo; settings: for anticancer activity / cancer metastasis suppressing activity: summary statement
Protocol: RM72 cells (3×10^6 cells) suspended in 0.1 ml of PBS were subcutaneously injected into the right posterior flank of Balb/c nude mice (6 weeks old, male, Charles River). […]. After 14-day treatment, the mice were anesthetized and their bioluminescence was recorded by the method described below. After the whole-body recording of the bioluminescence, the lung was resected, washed with PBS (−), and subjected to bioluminescence recording. The tumor size (length×width×height) was measured once a week. Statistical significance was assessed by Student's t-test.
Mice under anesthesia were intraperitoneally injected with 75 mg/kg of d-luciferin dissolved in PBS (−). Bioluminescence images were acquired with IVIS ImagingSystem (Xenogen) at 5 minutes after the injection (Wang S, El-Deiry W S. Requirement of p53 targets in chemosensitization of colonic carcinoma to death ligand therapy. Proc Natl Acad Sci USA 2003; 100: 15095-15100; Minn A J, Kang Y, Serganova I, Gupta G P, Giri D D, Doubrovin M, Ponomarev V, Gerald W L, Blasberg R, Massague J. Distinct organ-specific metastatic potential of individual breast cancer cells and primary tumors. J Clin Invest 2005; 115: 44-55). The photons emitted from the whole bodies or the isolated organs were collected for a period of 60 seconds and integrated. The images were analyzed using Living Image software (Xenogen).
The anti-tumorigenic and anti-metastatic activities of Pyt, Hr, Gra and Lyc were investigated with the same protocol as in Example 9. The experiment was conducted in two batches: Experiment 1 for three groups of a Pyt group, a Hr group and a vehicle group and Experiment 2 for three groups of a Gra group, a Lyc group and a vehicle group. The doses of the test compounds were set at two different quantities considered to be appropriate based on literature (see Tables 3 and 4).

Reck gene promoter [2] = assay: SEAP assay in YM3 cells (Reck gene promoter-reporter system); type: cell-based, mouse
Protocol: A 4.1-kb upstream region of a mouse Reck gene (Gene ID: 53614, Chromosome 4—NC—000070.5 43884251-43888453) was inserted into a pSEAP2-Basic vector (Clontech) to give a pSEAP-RP4.1 plasmid. […] Biochem Biophys Res Commun 1999; 264: 668-675.). […] TF323-C3 cells can be distributed from one of the inventors Makoto Noda.
YM3 cells were seeded onto 96-well plates at 1×10^4 cells in 100 μl per well and incubation was performed for 5 hours to allow the cells to settle. A compound solution (500 μM, 1 μl) was added to the medium. The employed test compounds were those in the chemical library Prestwick Chemical Library (Prestwick Chemical, Illkirch, France), which is composed of 880 structurally diverse known bioactive compounds, dissolved in nano-pure grade dimethyl sulfoxide (DMSO; Wako). […] A vehicle (DMSO, 1 μl) alone as a negative control and hypothemycin (HPM, 1 mg/ml) as a positive control were added to two wells per plate. Each sample was tested on two different plates (duplicate samples).
After incubation for 48 hours, a portion (10 μl) of the culture supernatant was sampled, incubated at 65° C. (heat treatment) for 30 minutes, and then subjected to the SEAP assay using Great EscAPe™ SEAP Chemiluminescence Detection Kit (Takara Bio). The remaining medium and the cells were subjected to the cell-counting assay using SF reagent. That is, SF reagent (Nacalai) (10 μl per well) was added to the medium, the plates were incubated for 3 hours in a CO2 incubator, and the absorbance at 450 nm (A450) was measured to obtain relative cell numbers. For the SEAP activity data, “SEAP measured value/A450 value” was defined as “SEAP activity per cell”, and the value obtained by dividing “SEAP activity per cell” of each compound by “SEAP activity per cell” of the negative control was defined as “relative SEAP activity”. The mean “relative SEAP activity” of the duplicate samples and the standard error thereof were determined. For the cell number data, the value obtained by dividing the SF measured value of each compound by the SF measured value of the negative control was defined as “relative cell number”, and the mean value of the duplicate samples and the standard error thereof were determined. Samples with a large standard error were tested again. In the experiment, duplicate samples were prepared each in a regular liquid medium and in a liquid medium containing Dox (2 μg/ml), and four mean values (the relative cell number and the relative SEAP activity in the Ras-ON state and the relative cell number and the relative SEAP activity in the Ras-OFF state) were obtained (see FIG. 3).

pro-MMP-9 = assay: Gelatin zymography of RM72 culture supernatant, MMP-9; type: cell-based, human; settings: RM72 cells; DSF 16 μM, DXR 210 nM, Gra 32 nM, Pyt 5 μM; 48 hours
Protocol: Gelatin zymography with the culture supernatant of RM72 cells treated with DSF, DXR, Gra, Pyt, pDTC, HPM, and DMSO (vehicle) was performed. Specifically, RM72 cells (2×10^4 cells per well) seeded onto 96-well plates were incubated for 24 hours, and the medium was replaced with a medium containing each of the above compounds (DSF: 16 μM, DXR: 210 nM, Gra: 32 nM, Pyt: 5 μM, HPM: 1 μg/ml, pDTC: 20 μM). After incubated for 48 hours, the medium was replaced with 100 μl of DMEM containing 0.1% FBS and incubated for additional 12 hours. The culture supernatant was harvested, cleared of a solid matter by centrifugation, and analyzed by gelatin zymography in accordance with the method described in literature (Takahashi C, Sheng Z, Horan. T P, Kitayama H, Maki M, Hitomi K, Kitaura Y, Takai S, Sasahara R M, Horimoto A, Ikawa Y, Ratzkin B J, Arakawa T, Noda M. Regulation of matrix metalloproteinase-9 and inhibition of tumor invasion by the membrane-anchored glycoprotein RECK. Proc Natl Acad Sci USA 1998; 95: 13221-13226). The band intensities were normalized against the cell number determined by the SF assay.

Reck gene promoter [3] = assay: SEAP assay in YM3 cells (Reck gene promoter-reporter system); type: cell-based, mouse; settings: determined by dose-response assays (0.0617, 0.185, 0.556, 1.67, 5.00 μM) using YM3 cells
RM72 cells [4] = assay: IC30 concentration in RM72 cells; type: cell-based, human
endogenous RECK = assay: Endogenous RECK mRNA (RT-PCR) and protein (immunoblotting) expression in RM72 cells; type: cell-based, human; settings: 48 hours, Lyc 1.3 μM, Hr 11 μM
From the text: Relative band intensities were obtained by normalization against HPRT1 for the mRNA and against GAPDH for the protein and subsequent division by the normalized value for the cells treated with the vehicle.

[5] = in the presence of Dox (HRAS12V-off)
[6] = relative SEAP activity at optimal conc., YM3 cells, regular medium (Ras-ON)

Gramicidin was tested, and the anti-metastatic activity (RM72 cells [1]; both doses) was “strong”, the anti-tumorigenic activity (RM72 cells [1]; both doses) was “weak” and the “Lung metastasis Mean” value (RM72 cells [1]; relative lung metastasis, vehicle = 100, 0.03 mg/kg/day) was 42.0. For the same molecule, the “Lung metastasis Mean” value (RM72 cells [1]; relative lung metastasis, vehicle = 100, 0.1 mg/kg/day) was 27.4, the “Tumor Mean” value (RM72 cells [1]; relative tumor size, vehicle = 100, 0.03 mg/kg/day) was 89.3 and the “Tumor Mean” value (RM72 cells [1]; relative tumor size, vehicle = 100, 0.1 mg/kg/day) was 83.1. For the same molecule, the anticancer activity (RM72 cells [1]) was “confirmed”, the “cancer metastasis suppressing activity” value (RM72 cells [1]) was “confirmed” and the Optimal conc. (Reck gene promoter [2]) was 5.00 µM. For the same molecule, the “Activity in Dox” value (Reck gene promoter [2]; [5]) was “+ (more than 1.9-fold)”, the “Induction (fold)” value (Reck gene promoter [2]; [6]) was 7.30 fold and the “pro-MMP-9 level in the culture supernatant” value (pro-MMP-9) was “reduced”.

`[O-][n+]1ccccc1S` [Pyrithione sodium salt] was tested, and the “Lung metastasis Mean” value (RM72 cells [1]; mouse, in vivo, 15 mg/kg/day) was 11.6, the “Tumor Mean” value (RM72 cells [1]; mouse, in vivo, 15 mg/kg/day) was 52.2 and the “Lung metastasis Mean” value (RM72 cells [1]; mouse, in vivo, 50 mg/kg/day) was 84.2. For the same molecule, the “Tumor Mean” value (RM72 cells [1]; mouse, in vivo, 50 mg/kg/day) was 74.4, the “Activity in Dox” value (Reck gene promoter [2]) was “+ (key: +: more than 1.9-fold; ±: between 1.9 and 1.5-fold; −: less than 1.5-fold)” and the “Induction (fold)” value (Reck gene promoter [2]) was 17.5 fold.

With Meclocycline sulfosalicylate the Optimal conc. (Reck gene promoter [3]) was 0.0617 µM, the “Activity in Dox” value (Reck gene promoter [2]; [5]) was “− (less than 1.5-fold)” and the “Induction (fold)” value (Reck gene promoter [2]; [6]) was 2.59 fold.

In the case of `Cl.O[C@H]1[C@H]2c3cc4c(cc3CN3CCC(=C[C@@H]1O)[C@H]23)OCO4` [Lycorine hydrochloride], the Optimal conc. (Reck gene promoter [3]) is reported as 5.00 µM, the IC30 (RM72 cells [4]) is reported as 1.3 µM and the “expression of RECK mRNA” value (endogenous RECK) is reported as “increased the expression”. The “expression of RECK protein” value (endogenous RECK) was “reduced the expression”, the anti-tumorigenic activity (RM72 cells [1]; both doses) was “strong” and the anti-metastatic activity (RM72 cells [1]; high dose) was “strong”. For the same molecule, the anti-metastatic activity (RM72 cells [1]; low dose) was “weak”, the “Lung metastasis Mean” value (RM72 cells [1]; relative lung metastasis, vehicle = 100, 2.5 mg/kg/day) was 65.5 and the “Lung metastasis Mean” value (RM72 cells [1]; relative lung metastasis, vehicle = 100, 7.5 mg/kg/day) was 17.7. The “Tumor Mean” value (RM72 cells [1]; relative tumor size, vehicle = 100, 2.5 mg/kg/day) was 69.7, the “Tumor Mean” value (RM72 cells [1]; relative tumor size, vehicle = 100, 7.5 mg/kg/day) was 70.9 and the anticancer activity (RM72 cells [1]) was “confirmed”. For the same molecule, the “cancer metastasis suppressing activity” value (RM72 cells [1]) was “confirmed”, the “Activity in Dox” value (Reck gene promoter [2]; [5]) was “+ (more than 1.9-fold)” and the “Induction (fold)” value (Reck gene promoter [2]; [6]) was 3.44 fold.

For Trimeprazine tartrate, the Optimal conc. (Reck gene promoter [3]) was 5.00 µM, the “Activity in Dox” value (Reck gene promoter [2]; [5]) was “− (less than 1.5-fold)” and the “Induction (fold)” value (Reck gene promoter [2]; [6]) was 2.30 fold.

With `COc1cccc2c1C(=O)c1c(O)c3c(c(O)c1C2=O)C[C@@](O)(C(=O)CO)C[C@@H]3O[C@H]1C[C@H](N)[C@H](O)[C@H](C)O1` [Doxorubicin hydrochloride] the “Activity in Dox” value (Reck gene promoter [2]; [5]) was “+ (more than 1.9-fold)”, the “Induction (fold)” value (Reck gene promoter [2]; [6]) was 8.55 fold and the “pro-MMP-9 level in the culture supernatant” value (pro-MMP-9) was “reduced”.

For `COc1ccc2c(c1)[nH]c1c(C)nccc12.Cl` [Harmine hydrochloride], the IC30 (RM72 cells [4]) was 11 µM, the “expression of RECK mRNA” value (endogenous RECK) was “increased the expression” and the “expression of RECK protein” value (endogenous RECK) was “increased the expression”. The anti-metastatic activity (RM72 cells [1]; both doses) was “strong”, the anti-tumorigenic activity (RM72 cells [1]; both doses) was “strong” and the “Lung metastasis Mean” value (RM72 cells [1]; relative lung metastasis, vehicle = 100, 3 mg/kg/day) was 22.0. The “Lung metastasis Mean” value (RM72 cells [1]; relative lung metastasis, vehicle = 100, 10 mg/kg/day) was 25.7, the “Tumor Mean” value (RM72 cells [1]; relative tumor size, vehicle = 100, 3 mg/kg/day) was 56.4 and the “Tumor Mean” value (RM72 cells [1]; relative tumor size, vehicle = 100, 10 mg/kg/day) was 47.2. For the same molecule, the anticancer activity (RM72 cells [1]) was “confirmed”, the “cancer metastasis suppressing activity” value (RM72 cells [1]) was “confirmed” and the “Activity in Dox” value (Reck gene promoter [2]; [5]) was “± (between 1.9 and 1.5-fold)”. The “Induction (fold)” value (Reck gene promoter [2]; [6]) was 2.44 fold.
